Drawing on PubChem BioAssay (NCI), this text covers TGI for five molecules.

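Briefly, cells in 96-well plates were exposed to five compound concentrations for 48 h, and endpoints were estimated by linear interpolation. TGI: concentration producing complete growth inhibition.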

Experiment in all cases: NCI tumour cell line growth inhibition, 48 h
For experiment [1], the system named is A549 NSCLC.
The test system of experiment [2] is DU-145 prostate.
Experiment [3] has as its system HCC-2998 colon.
For experiment [4], the system named is MDA-MB-231 breast.
In experiment [5] the test system is MDA-MB-435.
Experiment [6] deals with NCI-H23 lung.
The test system of experiment [7] is NCI-H522 lung.
Experiment [8] relates to PC-3 prostate.
The subject of experiment [9] is TK-10 renal.
The subject of experiment [10] is U251 CNS.

Take `O=C1OC(CN2CCN(c3ccccc3)CC2)CN1C(=S)Nc1ccccc1` (stereo not given): the TGI in experiment [1], in experiment [2], in [3], in experiment [4], in experiment [5] and in experiment [6] was > 100 µM in each case. Also, the TGI in experiment [7], in experiment [8], in experiment [9] and in [10] was > 100 µM in each case.
Consider `CC(C)(C)OC(=O)NC(Cc1ccc([N+](=O)[O-])cc1)C(=O)NC(CCCCNC(=O)OCc1ccccc1)C(=O)ON1C(=O)CCC1=O` (stereo not given), for which the TGI is > 100 µM in experiment [1]; > 100 µM in experiment [2]; 79.4 µM in experiment [3]; > 100 µM in experiment [4]; > 100 µM in [5]; > 100 µM in [6]. Moreover, the TGI in [7], in experiment [8], in experiment [9] and in experiment [10] was > 100 µM in each case.
In the case of `CN(/N=C\c1ccc2ccccc2c1)C1=NCCCCN1`, the TGI in experiment [1] was 58.3 µM; in experiment [2] it was > 100 µM; in experiment [3], 28.5 µM; in [4], 64.5 µM; in experiment [5], 38.1 µM; in experiment [6], > 100 µM. Moreover, the TGI in [7] was 34 µM; in [8], 36 µM; in experiment [9] it was 56.5 µM; in experiment [10] it was 44.6 µM.
`O=C(C1OC1c1ccc([N+](=O)[O-])cc1)C12CC3CC(CC(C3)C1)C2` (stereo not given): the TGI in [1] was determined as 52.7 µM; in [2] it was 46.2 µM; in experiment [3] it was 44.4 µM; in experiment [4] it was 34.8 µM; in experiment [5] it was 28.4 µM; in [6] it was 27.2 µM. Besides, the TGI in experiment [7] was found to be 54 µM; in [8] it was 28.1 µM; in experiment [9] it was 33.3 µM; in [10], 24.6 µM.
Consider `Cc1nc2c(-c3ccccc3)[nH]c(C)c2c(=O)o1`, for which the TGI in experiment [1], in experiment [2], in experiment [3], in experiment [4], in experiment [5] and in [6] was > 100 µM throughout. Moreover, the TGI in [7], in [8], in [9] and in experiment [10] was > 100 µM each time.
